From ChEMBL document CHEMBL4390673, “Identification of Novel Coumestan Derivatives as Polyketide Synthase 13 Inhibitors against Mycobacterium tuberculosis. Part II” (J Med Chem, 2019)
≈ marks a conversion by molar mass, not a printed value.

What was measured:
[1] = test system: Polyketide synthase Pks13 (Mycobacterium tuberculosis (strain ATCC 25618 / H37Rv)), I6X8D2 [D1644G,N1640K]; assay: Inhibition of Pks13 D1644G/N1640K double mutant thioesterase domain in multidrug-resistant Mycobacterium tuberculosis KZN494 assessed as reduction in bacterial growth by microplate alamar blue assay
[2] = test system: Polyketide synthase Pks13 (Mycobacterium tuberculosis (strain ATCC 25618 / H37Rv)), I6X8D2 [D1644G,N1640K]; assay: Inhibition of Pks13 D1644G/N1640K double mutant thioesterase domain in extensively drug-resistant Mycobacterium tuberculosis TF274 assessed as reduction in bacterial growth by microplate alamar blue assay
[3] = test system: Polyketide synthase Pks13 (Mycobacterium tuberculosis (strain ATCC 25618 / H37Rv)), I6X8D2 [D1644G,N1640K]; assay: Inhibition of Pks13 D1644G/N1640K double mutant thioesterase domain in extensively drug-resistant Mycobacterium tuberculosis R506 assessed as reduction in bacterial growth by microplate alamar blue assay
[4] = test system: Polyketide synthase Pks13 (Mycobacterium tuberculosis (strain ATCC 25618 / H37Rv)), I6X8D2 [D1644G,N1640K]; assay: Inhibition of Pks13 D1644G/N1640K double mutant thioesterase domain in multidrug-resistant Mycobacterium tuberculosis V2475 assessed as reduction in bacterial growth by microplate alamar blue assay
[5] = test system: Polyketide synthase Pks13 (Mycobacterium tuberculosis (strain ATCC 25618 / H37Rv)), I6X8D2 [D1644G,N1640K]; assay: Inhibition of Pks13 D1644G/N1640K double mutant thioesterase domain in drug-susceptible Mycobacterium tuberculosis V4207 assessed as reduction in bacterial growth by microplate alamar blue assay
[6] = test system: Polyketide synthase Pks13 (Mycobacterium tuberculosis (strain ATCC 25618 / H37Rv)), I6X8D2 [D1644G,N1640K]; assay: Inhibition of Pks13 D1644G/N1640K double mutant thioesterase domain in Mycobacterium tuberculosis H37Rv assessed as reduction in bacterial growth by microplate alamar blue assay

Compound | MIC=<90 [6] [µg/mL] | other results
CC1COc2c(N3CCN(C)CC3)c(F)cc3c(=O)c(C(=O)O)cn1c23 (stereo unspecified) | – | MIC=<90 [1]: 0.5 µg/mL (≈ 1.38 µM); MIC=<90 [2]: 8 µg/mL (≈ 22.1 µM); MIC=<90 [3]: 4 µg/mL (≈ 11.1 µM); MIC=<90 [4]: 0.5 µg/mL (≈ 1.38 µM); MIC=<90 [5]: 0.5 µg/mL (≈ 1.38 µM)
CC(C)(C)c1cc(O)c(CN2CCCCC2)c2c1oc1c3ccc(O)cc3oc(=O)c12 | 0.0039 (≈ 0.00925 µM) | MIC=<90 [1]: 0.001 to 0.002 µg/mL (≈ 0.00237 to 0.00475 µM); MIC=<90 [2]: 0.0039 µg/mL (≈ 0.00925 µM); MIC=<90 [3]: 0.0039 µg/mL (≈ 0.00925 µM); MIC=<90 [4]: 0.0156 µg/mL (≈ 0.037 µM); MIC=<90 [5]: 0.0039 to 0.0078 µg/mL (≈ 0.00925 to 0.0185 µM)
C[C@H]1COc2c(N3CCN(C)CC3)c(F)cc3c(=O)c(C(=O)O)cn1c23 | 0.25 (≈ 0.692 µM) | MIC=<90 [2]: 1 µg/mL (≈ 2.77 µM); MIC=<90 [3]: 2 µg/mL (≈ 5.53 µM); MIC=<90 [5]: 0.125 µg/mL (≈ 0.346 µM)
O=c1oc2ccccc2c2oc3c(Br)cc(O)c(CN4CCCCC4)c3c12 | 2 (≈ 4.67 µM) | –
CC1CCCN(Cc2c(O)ccc3oc4c5ccccc5oc(=O)c4c23)C1 (stereo unspecified) | 2 (≈ 5.5 µM) | –
NC[C@H]1O[C@H](O[C@H]2[C@H](O)[C@@H](O[C@H]3O[C@H](CO)[C@@H](O)[C@H](N)[C@H]3O)[C@H](N)C[C@@H]2N)[C@H](O)[C@@H](O)[C@@H]1O | 2 (≈ 4.13 µM) | MIC=<90 [1]: 2 µg/mL (≈ 4.13 µM); MIC=<90 [2]: > 128 µg/mL; MIC=<90 [3]: > 128 µg/mL; MIC=<90 [4]: 2 µg/mL (≈ 4.13 µM); MIC=<90 [5]: 2 µg/mL (≈ 4.13 µM)
COc1ccc2oc3c4ccccc4oc(=O)c3c2c1C(=O)N1CCCCC1 | > 64 | –
COCCOc1ccc2oc3c4ccccc4oc(=O)c3c2c1CN1CCCC1=O | > 64 | –
O=c1oc2ccccc2c2oc3cc(CN4CCCCC4)c(O)cc3c12 | > 64 | –
O=C1CCCN1Cc1c(O)ccc2oc3c4ccccc4oc(=O)c3c12 | > 64 | –
O=c1oc2ccccc2c2oc3c(Cl)cc(O)c(CN4CCCCC4)c3c12 | 2 (≈ 5.21 µM) | –
O=c1oc2ccc(O)cc2c2oc3ccc(O)c(CN4CCCCC4)c3c12 | 0.5 (≈ 1.37 µM) | –
COc1c(N2C[C@@H]3CCCN[C@@H]3C2)c(F)cc2c(=O)c(C(=O)O)cn(C3CC3)c12 | 0.0625 to 0.125 (≈ 0.156 to 0.311 µM) | –
CC(C)(C)c1cc(O)c(CN2CCCCC2)c2c1oc1c3cc(O)ccc3oc(=O)c12 | 0.125 (≈ 0.297 µM) | –
O=c1oc2ccccc2c2oc3cc(O)c(O)c(CN4CCCCC4)c3c12 | 4 (≈ 10.9 µM) | –
O=c1oc2ccccc2c2oc3cc([N+](=O)[O-])c(O)c(CN4CCCCC4)c3c12 | > 64 | –
O=c1oc2ccccc2c2oc3ccc(O)c(CN4CCCC4)c3c12 | 0.5 (≈ 1.49 µM) | –
COc1ccc2oc3c4ccccc4oc(=O)c3c2c1CN1CCCC1=O | > 64 | –
CC1CCN(Cc2c(O)ccc3oc4c5ccccc5oc(=O)c4c23)CC1 | 0.5 (≈ 1.38 µM) | –
CO[C@H]1/C=C/O[C@@]2(C)Oc3c(C)c(O)c4c(O)c(c(/C=N/N5CCN(C)CC5)c(O)c4c3C2=O)NC(=O)/C(C)=C\C=C\[C@H](C)[C@H](O)[C@@H](C)[C@@H](O)[C@@H](C)[C@H](OC(C)=O)[C@@H]1C | 0.125 (≈ 0.152 µM) | MIC=<90 [1]: 128 µg/mL (≈ 156 µM); MIC=<90 [2]: > 128 µg/mL; MIC=<90 [3]: > 128 µg/mL; MIC=<90 [4]: 4 µg/mL (≈ 4.86 µM); MIC=<90 [5]: 0.0625 µg/mL (≈ 0.0759 µM)
CCOC(=O)c1c(-c2ccccc2)oc2ccc(O)c(CN3CCC(C)CC3)c12 | 1 (≈ 2.54 µM) | –
O=C1CCCCCN1Cc1c(O)ccc2oc3c4ccccc4oc(=O)c3c12 | > 64 | –

Compound | MIC=<90 [6] [µg/mL] | other results
COc1ccc2oc3c4ccccc4oc(=O)c3c2c1CN1CCCCC1=O | > 64 | –
NCC[C@H](O)C(=O)N[C@@H]1C[C@H](N)[C@@H](O[C@H]2O[C@H](CN)[C@@H](O)[C@H](O)[C@H]2O)[C@H](O)[C@H]1O[C@H]1O[C@H](CO)[C@@H](O)[C@H](N)[C@H]1O | 1 (≈ 1.71 µM) | –
COCCOc1ccc2oc3c4ccccc4oc(=O)c3c2c1CN1CCCCC1=O | > 64 | –
O=c1oc2cc(O)ccc2c2oc3cc(O)c(O)c(CN4CCCCC4)c3c12 | 2 (≈ 5.24 µM) | –
C[C@@H]1NC(=O)[C@@H](N)CNC(=O)[C@H](C2CCNC(=N)N2)NC(=O)/C(=C/NC(N)=O)NC(=O)[C@H](CNC(=O)CC(N)CCCN)NC1=O.N=C1NCCC([C@@H]2NC(=O)/C(=C/NC(N)=O)NC(=O)[C@H](CNC(=O)CC(N)CCCN)NC(=O)[C@H](CO)NC(=O)[C@@H](N)CNC2=O)N1 (stereo partly specified) | 1 | –
CC[C@@H](CO)NCCN[C@@H](CC)CO | 1 (≈ 4.89 µM) | –
O=C(c1cc2oc3c4ccccc4oc(=O)c3c2cc1O)N1CCCCC1 | > 64 | –
O=C(c1c(O)ccc2oc3c4ccccc4oc(=O)c3c12)N1CCCCC1 | > 64 | –
O=c1oc2ccccc2c2oc3cc(Br)c(O)c(CN4CCCCC4)c3c12 | > 64 | –
CCOc1ccc2oc3c4ccccc4oc(=O)c3c2c1CN1CCCCC1=O | > 64 | –
COc1cc2oc3c4ccccc4oc(=O)c3c2c(CN2CCCCC2)c1O | 2 (≈ 5.27 µM) | –
CNC(=O)c1c(-c2ccc(O)cc2)oc2ccc(O)c(CN3CCCCC3)c12 | 0.0313 (≈ 0.0823 µM) | –
O=c1oc2ccccc2c2oc3ccc(O)c(CN4CCCCC4)c3c12 | 0.125 to 0.25 (≈ 0.358 to 0.716 µM) | –
O=C(NCC1CC1)c1c(O)ccc2oc3c4ccccc4oc(=O)c3c12 | > 64 | –
O=c1oc2cc(O)ccc2c2oc3ccc(O)c(CN4CCCCC4)c3c12 | 0.0039 (≈ 0.0107 µM) | MIC=<90 [1]: 0.0039 µg/mL (≈ 0.0107 µM); MIC=<90 [2]: 0.0078 µg/mL (≈ 0.0213 µM); MIC=<90 [3]: 0.0078 µg/mL (≈ 0.0213 µM); MIC=<90 [4]: 0.0156 µg/mL (≈ 0.0427 µM); MIC=<90 [5]: 0.0078 µg/mL (≈ 0.0213 µM)
O=C1CCCCN1Cc1c(O)ccc2oc3c4ccccc4oc(=O)c3c12 | > 64 | –
Cc1cc(O)c(CN2CCCCC2)c2c1oc1c3ccccc3oc(=O)c12 | 0.125 (≈ 0.344 µM) | –
CC1CCCCN1Cc1c(O)ccc2oc3c4ccccc4oc(=O)c3c12 (stereo unspecified) | 1 (≈ 2.75 µM) | –
NNC(=O)c1ccncc1 | 0.04 (≈ 0.292 µM) | MIC=<90 [1]: 16 µg/mL (≈ 117 µM); MIC=<90 [2]: 8 µg/mL (≈ 58.3 µM); MIC=<90 [3]: 8 µg/mL (≈ 58.3 µM); MIC=<90 [4]: 16 µg/mL (≈ 117 µM); MIC=<90 [5]: 0.04 µg/mL (≈ 0.292 µM)
CC(C)(C)c1cc(O)c(CN2CCCCC2)c2c1oc1c3ccccc3oc(=O)c12 | 0.0625 to 0.125 (≈ 0.154 to 0.308 µM) | –
O=c1oc2cc(O)c(O)cc2c2oc3cc(O)c(O)c(CN4CCCCC4)c3c12 | 32 (≈ 80.5 µM) | –
O=c1oc2ccccc2c2oc3ccc(O)cc3c12 | > 64 | –
